Assay [1] deals with T1, human protease activated receptor 1 (PAR1) (Homo sapiens, UniProt P25116).
T1 construct: the cell stably expresses the endogenous human PAR1 receptor and the endogenous purinergic receptor P2Y2; endogenous in cells; host or cells: HEK293-derived recombinant cell line constitutively expressing mitochondrial aequorin
T1 sequence (P25116 22-425): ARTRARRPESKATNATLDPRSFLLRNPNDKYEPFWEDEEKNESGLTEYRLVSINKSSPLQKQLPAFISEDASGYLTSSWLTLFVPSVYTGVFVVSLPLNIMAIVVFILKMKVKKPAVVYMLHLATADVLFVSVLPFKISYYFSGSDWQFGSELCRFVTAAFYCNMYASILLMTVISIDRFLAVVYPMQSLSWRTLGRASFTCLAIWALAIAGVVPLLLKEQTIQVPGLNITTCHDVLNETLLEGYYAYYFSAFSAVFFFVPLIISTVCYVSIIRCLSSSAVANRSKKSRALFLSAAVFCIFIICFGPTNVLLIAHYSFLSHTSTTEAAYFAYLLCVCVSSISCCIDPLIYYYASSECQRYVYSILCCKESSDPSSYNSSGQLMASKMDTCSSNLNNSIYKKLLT
Kind of assay: Cellular functional in vitro test (aequorin luminescence, PAR1 test cell). Conditions: recombinant HEK293-derived cell line expressing aequorin; PAR1 agonist added at its EC50 5 minutes after test substance. The format is cell-based. The source says: 1.a) Cellular Functional In vitro Test
A recombinant cell line is used to identify […] of the human protease activated receptor 1 (PAR1) and to quantify the activity of the substances described herein. The cell is originally derived from a human embryonal kidney cell (HEK293; ATCC: American Type Culture Collection, Manassas, Va. 20108, USA). The test cell line constitutively expresses a modified form of the calcium-sensitive photoprotein aequorin which, after reconstitution with the cofactor coelenterazine, emits light when the free calcium concentration in the inner mitochondrial compartment is increased (Rizzuto R, Simpson A W, Brini M, Pozzan T.; Nature 1992, 358, 325-327). Additionally, the cell stably expresses the endogenous human PAR1 receptor and the endogenous purinergic receptor P2Y2. The resulting PAR1 test cell responds to stimulation of the endogenous PAR1 or P2Y2 receptor with an intracellular release of calcium ions, which can be quantified through resulting aequorin luminescence with a suitable luminometer (Milligan G, Marshall F, Rees S, Trends in Pharmacological Sciences 1996, 17, 235-237).
For testing the substance specificity, its effect after activation of the endogenous PAR1 receptor is compared to the effect after activation of the endogenous purinergic P2Y2 receptor which utilizes the same intracellular signal path.
Test procedure: The cells are plated out two days (48 hours) before the test in culture medium (DMEM F12, supplemented with 10% FCS, 2 mM glutamine, 20 mM HEPES, 1.4 mM pyruvate, 0.1 mg/ml gentamycin, 0.15% Na bicarbonate; BioWhittaker Cat.# BE04-687Q; B-4800 Verviers, Belgium) in 384-well microtitre plates and kept in a cell incubator (96% atmospheric humidity, 5% V/V CO2, 37° C.). On the day of the test, the culture medium is replaced by a tyrode solution (in mM: 140NaCl, 5l KCl, 1MgCl2, 2CaCl2, 20 glucose, 20 HEPES), which additionally contains the cofactor coelenterazine (25 μM) and glutathione (4 mM), and the microtitre plate is then incubated for a further 3-4 hours. The test substances are then pipetted onto the microtitre plate, and 5 minutes after the transfer of the test substances into the wells of the microtitre plate the plate is transferred into the luminometer, a PAR1 agonist concentration which corresponds to the EC50 is added and the resulting light signal is immediately measured in the luminometer. To distinguish an antagonist substance action from a toxic action, the endogenous purinergic receptor is immediately subsequently activated with agonist (ATP, final concentration 10 μM) and the resulting light signal is measured.

Assay [2] relates to platelet-rich plasma (platelet aggregation triggered by thrombin receptor agonist TRAP6, SFLLRN). Kind of assay: Platelet aggregation in plasma (TRAP6/SFLLRN-induced, Born turbidimetry). The format is cell-based. The conditions noted are these: Homo sapiens; platelet-rich plasma of healthy volunteers; 10 min incubation at 37° C.; light transmission 5 minutes after agonist; concentration at which aggregation is 50% inhibited. Here is the method:
1.c) Platelet Aggregation in Plasma
To determine the platelet aggregation, blood of healthy volunteers of both sexes who had not received any thrombocyte aggregation-influencing medication for the last ten days is used. The blood is drawn into monovettes (Sarstedt, Nümbrecht, Germany) which contain, as anticoagulant, sodium citrate 3.8% (1 part of citrate+9 parts of blood). To obtain platelet-rich plasma, the citrated whole blood is centrifuged at 140 g for 20 min.
For the aggregation measurements, aliquots of the platelet-rich plasma are incubated with increasing concentrations of test substance at 37° C. for 10 min. Aggregation is then triggered by addition of a thrombin receptor agonist (TRAP6, SFLLRN) in an aggregometer and determined at 37° C. using the turbidimetric method according Born (Born, G. V. R., Cross M. J., The Aggregation of Blood Platelets; J. Physiol. 1963, 168, 178-195). The SFLLRN concentration giving maximum aggregation is individually determined for each donor.
To calculate the inhibitory effect, the increase of light transmission (amplitude of the aggregation curve in %) is determined 5 minutes after addition of the agonist in the presence and absence of test substance, and the inhibition is calculated. The concentration at which the aggregation is 50% inhibited is calculated from the inhibition curves.

On to `O=C(N1CCOCC1)N1CC(c2ccc(OC(F)(F)F)cc2)CC(c2nc(-c3ccc(F)cc3F)no2)C1` (racemic) [Example 38, 4-({3-[3-(2,4-Difluorophenyl)-1,2,4-oxadiazol-5-yl]-5-[4-(trifluoromethoxy)phenyl]piperidin-1-yl}carbonyl)morpholine], for which the values for the IC50 in assay [1] and in assay [2] were 31 nM and 93000 nM, respectively.
For `CCc1ccc(C2CC(c3nc(-c4c(F)cccc4F)no3)CN(C(=O)N3CCOCC3)C2)cc1` (racemic) [Example 39, 4-({3-[3-(2,6-Difluorophenyl)-1,2,4-oxadiazol-5-yl]-5-(4-ethylphenyl)piperidin-1-yl}carbonyl)-morpholine] the same measures were 6.8 nM and 5600 nM.
On the same counts, the results for `CCc1ccc(C2CC(c3nc(Cc4ccccc4Cl)no3)CN(C(=O)N3CCOCC3)C2)cc1` (racemic) [Example 60, 4-({3-[3-(2-Chlorobenzyl)-1,2,4-oxadiazol-5-yl]-5-(4-ethylphenyl)piperidin-1-yl}carbonyl)-morpholine] are 10 nM and 19600 nM.
On to `CC(C)c1noc(C2CC(c3ccc(OC(F)(F)F)cc3)CN(C(=O)N3CCC(O)CC3)C2)n1` (single isomer, unassigned) [Example 451, (4-Hydroxypiperidin-1-yl){3-[3-(propan-2-yl)-1,2,4-oxadiazol-5-yl]-5-[4-(trifluoromethoxy)phenyl]piperidin-1-yl}methanone], for which the half-inhibitory concentration (IC50) in assay [1] amounted to 19.6 nM.
As for `Cc1noc(C2CC(c3ccc(OC(F)(F)F)cc3)CN(C(=O)N3CCC(O)CC3)C2)n1` (single isomer, unassigned) [Example 454, (4-Hydroxypiperidin-1-yl){3-(3-methyl-1,2,4-oxadiazol-5-yl)-5-[4-(trifluoromethoxy)phenyl]piperidin-1-yl}methanone], in assay [1], the IC50 turned out to be 47.5 nM.
The same measure, in the same setting: the figure for `COCCc1noc(C2CC(c3ccc(C)c(C(F)(F)F)c3)CN(C(=O)N3CCOCC3)C2)n1` (single isomer, unassigned) [Example 459, {3-[3-(2-Methoxyethyl)-1,2,4-oxadiazol-5-yl]-5-[4-methyl-3-(trifluoromethyl)phenyl]piperidin-1-yl}(morpholin-4-yl)methanone] is 84.2 nM.
For the molecule `CCc1ccc(C2CC(c3nc(CCOC)no3)CN(C(=O)N3CCC(O)CC3)C2)cc1` (single isomer, unassigned) [Example 549, {3-(4-Ethylphenyl)-5-[3-(2-methoxyethyl)-1,2,4-oxadiazol-5-yl]piperidin-1-yl}(4-hydroxy-piperidin-1-yl)methanone], in assay [1], the IC50 worked out at 12.5 nM.
Still for that read-out and setting: next, `O=C(N1CCC(O)C1)N1CC(c2ccc(C(F)(F)F)cc2)CC(c2nc(C3CC3)no2)C1` (stereo not drawn) [Example 146, {3-(3-Cyclopropyl-1,2,4-oxadiazol-5-yl)-5-[4-(trifluoromethyl)phenyl]piperidin-1-yl}(3-hydroxy-pyrrolidin-1-yl)methanone]: 9.39 nM.
Same read-out and setting: next, `O=C(N1CCOCC1)N1CC(c2cccc(C(F)(F)F)c2)CC(c2nc(-c3c(F)cccc3F)no2)C1` (stereo not drawn) [Example 352]: 4.77 nM.
Same read-out and setting: the figure for `O=C(N1CCOCC1)N1CC(c2cccc(C(F)(F)F)c2)CC(c2nc(-c3cc(F)ccc3F)no2)C1` (stereo not drawn) [Example 356] is 2.73 nM; for `COCCc1noc(C2CC(c3ccc(OC(F)(F)F)cc3)CN(C(=O)N3CCC(O)C3)C2)n1` (stereo not drawn) [Example 420, (3-Hydroxypyrrolidin-1-yl) {3-[3-(2-methoxyethyl)-1,2,4-oxadiazol-5-yl]-5-[4-(trifluoromethoxy)-phenyl]piperidin-1-yl}methanone] it is 23.8 nM.
On to `COCc1nc(C2CC(c3ccc(C(F)(F)F)cc3)CN(C(=O)N3CCOCC3)C2)no1` (stereo not drawn) [Example 465, {3-[5-(Methoxymethyl)-1,2,4-oxadiazol-3-yl]-5-[4-(trifluoromethyl)phenyl]piperidin-1-yl}-(morpholin-4-yl)methanone], for which, in assay [1], the IC50 stood at 24.4 nM.
